Source: patent publication US9422321B2, “Pyrimidine nucleoside derivatives, synthesis methods and uses thereof for preparing anti-tumor and anti-virus medicaments” (High & New Technology Research Center, Henan Academy of …, priority 2010, dated 2016)
Where “and” joins values, the source holds several entries; their conditions need not be identical. Equal values may be shown once.

Assays:
VSVG/HIV-luc (NL4-3) = experiment: microbe, parasite or virus in culture; assay type: cell-based, HIV-1; settings: Human immunodeficiency virus 1, NL43, HEK-293T; for EC50: 48 h, read-out: EC50 (μM) VSVG/HIV-luc (NL4-3)
HBsAg = experiment: In vitro inhibition of HBV: HBsAg in HepG2.2.15 cells by ELISA; assay type: cell-based; settings: Hepatitis B virus, HepG2.2.15, read-out: IC50 (μM) (HBsAg)
Protocol: (§1) A tube of frozen HepG2.2.15 cells taken from a liquid nitrogen tank was quickly placed into a water bath at 42° C. and shaken to thaw. DMEM complete medium (fetal bovine serum 10%, G418 380 μg/mL, Penicillin 100 U/ml, Streptomycin 100 U/ml) was used for cell culturing at conditions of 37° C. and 5% CO2. The number of cell passage in normal growing cells was once per 2-3 days.
(§2) The effect of a compound on HBV surface antigen s and antigen e in the cell culture was detected using a screening concentration lower than the half toxic concentration of the compound. HepG2.2.15 cells in logarithmic growth phase were selected and digested with trypsin into single cell suspension, and were seeded to a 24-well plate at a concentration of 2×10^4/mL, 1 mL per well. Media of different medicament concentrations were added, three wells for each concentration, and cells added with complete medium were set as normal control. Cell supernatants and cells at day 3, day 6 and day 9 were collected and kept under −20° C. The intracellular and extracellular expressions of e antigen and surface antigen at day 3, day 6 and day 9 were determined by ELISA.
(§3) 2.4 Effect of the Compound on HBeAg and HBsAg in HepG2.2.15 Cell Supernatant Detected by ELISA
(§4) The instructions of the kit were followed;
(§5) Measurement: OD value of each well was read from microplate reader using dual wavelength 450/630 nm.
(§6) Result determination: The Cutoff value was first calculated according to equation: COV=average OD of negative control×2.1. Then, if a sample had OD≧COV, the result was determined as positive, or if a sample had OD≦COV, the result was determined as negative.

[1] = MTS test of effects of the compound on cell survival; assay type: cell-based; settings: human, 293T cells
Protocol: Then, 20 μL freshly prepared mixture of MTS/PMS was added to each well and after 4 h incubation in the incubator at 37° C. with 5% CO2, the color was developed. The light absorption (OD) of each well at wavelengths 490 nm and 650 nm (background) was detected on an enzyme linked immuno analyzer, and the survival rate of cells was calculated.

[2] = MTT test of cytotoxicity on HepG2.2.15 cells; assay type: cell-based; settings: human, read-out: CC50 (μM) (HepG2. 2. 15)
Protocol: as §1
Cytotoxicity of the compound on HepG2.2.15 cells was tested with the MTT colorimetric assay established by Mosmann. After continuous incubation for 72 h, 10 μL MTT was added to each well. Four hours later, the supernatant was discarded and 200 μL DMSO was added to each well. The OD value in each well was read using a microplate reader (measurement wavelength 490 nm, reference wavelength 630 nm). The result was recorded and the percentage inhibition of HepG2.2.15 cells by each compound was calculated:
The half toxic concentration (TC50) of the medicament on cells was calculated according to the percentage inhibition of the cell by the medicament.

HBeAg = experiment: In vitro inhibition of HBV: HBeAg in HepG2.2.15 cells by ELISA; assay type: cell-based; settings: Hepatitis B virus, HepG2.2.15, read-out: IC50 (μM) (HBeAg)
Protocol: as §1, §2, §3, §4, §5, §6

[3] = test system: human lymphoma Raji cells; experiment: Inhibition of cell growth by MTT reduction; assay type: cell-based; settings: read-out: Inhibitory activity, IC50
Protocol: Cell culturing: Raji cells in RPMI1640 culture solution containing 10% fetal calf serum were incubated in an incubator at 37° C. with 5% CO2 for 2-3 days. Cells in logarithmic growth phase were used for the experiment.
Cells in logarithmic growth phase were taken and after the cell density was adjusted to 5×10^4 cells/mL, they were seeded to three 96-well plates separately, 100 μL per well. The culture solution was replaced after 24 h cell culturing. […] The blank group (for zeroing) was only added with RPMI1640 culture solution containing 10% fetal calf serum and no cell was added. The control group was added with an equal volume of RPMI1640 culture solution containing 10% fetal calf serum. Each group had 5 replicates. After cells were incubated for 24 h, 48 h and 72 h separately, 20 μL MTT solution (5 mg/mL) was added to each well followed by a 4 h incubation. The supernatant was removed by sucking it out and discarded. 150 μL DMSO was added per well, vortexed about 5 min to mix evenly. After the crystal was completely dissolved, the absorption (A) value at 570 nm of each well was tested within 20 min on enzyme-linked immuno analyzer. The experiment was repeated 3 times and the average was taken to calculate the inhibition rate of cell growth by the following equation. Inhibition rate of cell growth=(1−average A value of experimental group/average A value of control group)×100%

HCV-RNA = experiment: In vitro anti-HCV activity, quantitative determination of HCV-RNA; assay type: cell-based, hepatitis C virus (HCV); settings: for levels of HCV-RNA: control 0 μg/mL: Exp 1 5.3 × 10^2, Exp 2 4.0 × 10^2
Protocol: HCV replication cells (Avva.5) were cultivated in Dulbecco's modified Eagle medium containing 10% fetal calf serum and 1 mg/mL G418. 293-Sip-L cells were cultivated in Dulbecco's modified Eagle medium containing 10% fetal calf serum, 250 μg/mL G418 and 150 μg/mL hygromycin B.
Cells in a Φ60 mm Petri dish were incubated in positive medium containing 100 μL HCV for 12 h, then in fresh medium free of HCV that was replaced every day. When being tested for HCV-RNA seven days after the infection, cells were trypsinized and washed with Dulbecco's modified Eagle medium twice through a centrifugation method. The upper layer from the second wash (as a control) and the washed cells were collected in pairs and used for RNA extraction and RT-PCR test. The β-actin mRNA was determined simultaneously as a control.
The quantitative determination of HCV-RNA was performed using automatic PCR enzyme-linked immunoassay (version 2.0, Roche Diagnostics, Branchburg, N.J.).
The levels of HCV-RNA were determined using automatic PCR enzyme-linked immunoassay.

| Compound | EC50 (VSVG/HIV-luc (NL4-3)) | inhibition at 10 µM (VSVG/HIV-luc (NL4-3); read-out: Inhibitory activity at 10 μM) | IC50 (HBsAg) | CC50 at 44 h [1] | CC50 at 72 h [2] | IC50 (HBeAg) | IC50 [3] | levels of HCV-RNA (HCV-RNA; 0.06 μg/mL in the culture) | levels of HCV-RNA (HCV-RNA; 0.6 μg/mL in the culture) | levels of HCV-RNA (HCV-RNA; 6 μg/mL in the culture) | inhibitory effect on HCV (HCV-RNA; concentrations 6, 0.6 and 0.06 μg/mL) |
| --- | --- | --- | --- | --- | --- | --- | --- | --- | --- | --- | --- |
| COC(=O)[C@@H](Cc1cc2ccccc2[nH]1)Nc1ccn([C@@H]2O[C@@](CO)(N=[N+]=[N-])C(O)C2F)c(=O)n1 (stereo partly shown) [Compound 7c] | 0.5 µM | 38.8 ± 3.3% | 0.2 µM | ≥ 25 µM | ≥ 280 µM | 0.32 µM |  |  |  |  |  |
| COC(=O)C[C@H](Nc1ccn([C@@H]2O[C@@](CO)(N=[N+]=[N-])C(O)C2F)c(=O)n1)C(=O)OC (stereo partly shown) [Compound 8e] | 12 ± 2.8 µM |  | 20.5 µM | ≥ 25 µM | 231 µM | 12.8 µM |  |  |  |  |  |
| CNc1ccn([C@@H]2O[C@@](CO)(N=[N+]=[N-])C(O)C2F)c(=O)n1 (stereo partly shown) [Compound 5-28] | 6.7 ± 4.7 µM |  | 6.26 µM | ≥ 25 µM | > 250 µM | 14.3 µM |  |  |  |  |  |
| COC(=O)CC[C@H](Nc1ccn([C@@H]2O[C@@](CO)(N=[N+]=[N-])C(O)C2F)c(=O)n1)C(=O)OC (stereo partly shown) [Compound 7b] | 0.7 ± 0.1 µM |  | 0.02 µM | ≥ 25 µM | > 1250 µM | 6.16 µM | 28 µM |  |  |  |  |
| [N-]=[N+]=N[C@]1(CO)O[C@@H](n2ccc(NO)nc2=O)C(F)C1O (stereo partly shown) [Compound 5-17] | 0.7 ± 0.2 µM |  | 0.07 µM | ≥ 25 µM | 951 µM | 0.11 µM |  |  |  |  |  |
| [N-]=[N+]=N[C@]1(CO)O[C@@H](n2ccc(N[C@@H](Cc3cc4ccccc4[nH]3)C(=O)O)nc2=O)C(F)C1O (stereo partly shown) [Compound 8d] | 0.7 ± 0.1 µM |  | 0.03 µM | ≥ 25 µM | ≥ 25 µM | 0.36 µM |  |  |  |  |  |
| [N-]=[N+]=N[C@]1(CO)O[C@@H](n2ccc(NCCN)nc2=O)C(F)C1O (stereo partly shown) [Compound 5-02] | 0.093 ± 0.067 µM |  | 8.05 µM | ≥ 25 µM | ≥ 25 µM |  | 45 µM | 4.5 × 10^2 and 4.2 × 10^2 | 0.90 × 10^2 and 0.70 × 10^2 | 1.0 × 10^2 and 0.80 × 10^2 | exhibited inhibitory effect |
| [N-]=[N+]=N[C@]1(CO)O[C@@H](n2ccc(N(CCO)CCO)nc2=O)C(F)C1O (stereo partly shown) [Compound 5-19] | 0.8 ± 0.7 µM |  | 0.009 µM | ≥ 25 µM | > 1250 µM |  | 1.6 µM |  |  |  |  |
